Data from patent US20130143902A1, “COMPOSITIONS AND METHODS OF TREATING A PROLIFERATIVE DISEASE WITH A QUINAZOLINONE DERIVATIVE” (GILEAD CALISTOGA LLC, priority 2011, published 2013).
Several values for one entry are separate records, joined by “and”; a condition that tells them apart may be missing. Identical values can stand only once. Like-named read-outs stand apart in the source and are kept apart here.

Key:
LN229 [1] = assay: pAkt pathway inhibition, LN229; assay type: cell-based; details: Homo sapiens, LN-229; LN229, Glioma
LN229 [2] = assay: Viability (AlamarBlue), LN229; assay type: cell-based; details: Homo sapiens, LN-229; LN229, Glioma
Procedure: (§1) For primary T-ALL samples, cell viability was determined using the BD Cell Viability kit (BD Biosciences) and fluorescent counting beads as previously described in Armstrong, F. et al., NOTCH is a key regulator of human T-cell acute leukemia initiating cell activity, Blood 113, 1730-1740 (2009). Cells were plated with MS5-DL1 stroma cells. After 72 hours following treatment, cells were harvested and stained with an APC-conjugated anti-human CD45 according to the manufacturer's instructions. For solid tumor cell lines, cellular viability was determined using the AlamarBlue kit (Invitrogen). About 10,000 cells in 100 μL of media containing 10% FBS were aliquoted into individual wells of a 96-well plate and treated with vehicle (DMSO) or compound in triplicate for 24 hours. Ten μL of AlamarBlue reagent was added to each well and incubated for 4 hours at 37° C. with 5% CO2. Fluorescence was measured with an excitation wavelength at 530 to 560 nm and emission wavelength at 590 nm using Spectramax M5 plate reader (Molecular Devices, Sunnyvale, Calif.).

LNCaP [3] = assay: pAkt pathway inhibition, LNCaP; assay type: cell-based; details: Homo sapiens, Prostate
pAkt in solid tumor = assay: pAkt activity, solid tumor; assay type: cell-based; details: N = 14
Description: (§2) Cellular viability and pAkt activity were used to determine effects of Compounds A, C, and D in solid tumor, B-cell malignancies, and T-cell malignancies.

KM-12 = assay: pAkt pathway inhibition, KM-12; assay type: cell-based; details: Homo sapiens, KM12; KM-12, Colon
T47D [4] = assay: Viability (AlamarBlue), T47D; assay type: cell-based; details: Homo sapiens, Breast
Procedure: as §1

B Cell Malignancies = assay: Cellular viability, B cell malignancies; assay type: cell-based; details: N = 7
Description: as §2

PC3 [5] = assay: Viability (AlamarBlue), PC3; assay type: cell-based; details: Homo sapiens, PC-3; PC3, Prostate
Procedure: as §1

22Rv1 = assay: Viability (AlamarBlue), 22Rv1; assay type: cell-based; details: Homo sapiens; 22Rv1, Prostate
Procedure: as §1

LN18 = assay: Viability (AlamarBlue), LN18; assay type: cell-based; details: Homo sapiens, LN-18; LN18, Glioma
Procedure: as §1

IGROV-1 = assay: pAkt pathway inhibition, IGROV-1; assay type: cell-based; details: Homo sapiens; IGROV-1, Ovarian
UACC-62 = assay: pAkt pathway inhibition, UACC-62; assay type: cell-based; details: Homo sapiens; UACC-62, Melanoma
PC3 [6] = assay: pAkt pathway inhibition, PC3; assay type: cell-based; details: Homo sapiens, PC-3; PC3, Prostate
LNCaP [7] = assay: Viability (AlamarBlue), LNCaP; assay type: cell-based; details: Homo sapiens, Prostate
Procedure: as §1

[8] = system: Akt/PKB phosphorylation in primary T-ALL tumors; assay: Akt/PKB phosphorylation in primary T-ALL tumors; assay type: cell-based, human; details: primary T-ALL tumors from four patients
Procedure: Cell lysates (from cell lines or thymocytes) were prepared on ice in M-PER Mammalian Protein Extraction reagent (Pierce) containing a cocktail of protease and phosphatase inhibitors as described in Swat, W. et al., Essential role of PI3 Kdelta and PI3 Kgamma in thymocyte survival, Blood 107, 2415-2422 (2006). Equal amounts of total protein from lysates were separated using SDS-PAGE, transferred to PVDF membrane (Immobilon-P, Millipore). Membranes were incubated overnight incubation with appropriate primary antibodies. Bound antibodies were visualized with HRP-conjugated secondary antibodies and ECL chemistry (SuperPico West, Pierce).

U87MG = assay: pAkt pathway inhibition, U87MG; assay type: cell-based; details: Homo sapiens, U-87 MG, Glioma
Solid tumor = assay: Cellular viability, solid tumor; assay type: cell-based; details: N = 14
Procedure: as §1, §2

RXF-393 = assay: pAkt pathway inhibition, RXF-393; assay type: cell-based; details: Homo sapiens; RXF-393, Renal
PTEN null T-ALL = assay: Diseased Lck/PTEN^fl/fl mice with PTEN null T-ALL; assay type: in vivo; details: 30 mg/kg BID, Day 4 and 7, compared to control mice
[9] = In vivo PK (cannulated rat, IV and PO); details: for half-life: read-out: T½ (converted)
T47D [10] = assay: pAkt pathway inhibition, T47D; assay type: cell-based; details: Homo sapiens, Breast
[11] = IV 1 mg/kg, individual rats, 1 mg/kg
[12] = rat, plasma, iv, 1 mg/kg, IV 1 mg/kg, individual rats
[13] = rat, plasma, iv, 1 mg/kg, IV 1 mg/kg, mean of 3 rats
[14] = rat, plasma, po, 3 mg/kg, PO 3 mg/kg, individual rats
[15] = rat, plasma, po, 3 mg/kg, PO 3 mg/kg, mean of 3 rats
[16] = rat, plasma, po, 30 mg/kg, PO 30 mg/kg, individual rats
[17] = rat, plasma, po, 30 mg/kg, PO 30 mg/kg, mean of 3 rats

## CC(Nc1ncnc2[nH]cnc12)c1nc2cccc(Cl)c2c(=O)n1-c1ccccc1 (stereo not drawn) [Compound A, 2-(1-(9H-purin-6-ylamino)ethyl)-5-chloro-3-phenylquinazolin-4(3H)-one]
LN229 [1]
  EC50: 10 nM
LN229 [2]
  GI50: 3000 nM
LNCaP [3]
  EC50: 34 nM
pAkt in solid tumor
  EC50: 188 nM
KM-12
  EC50: 897 nM
T47D [4]
  GI50: 1700 nM
B Cell Malignancies
  EC50: 420 nM
PC3 [5]
  GI50: 2400 nM
22Rv1
  GI50: 2300 nM
LN18
  GI50: 3500 nM
IGROV-1
  EC50: 10 nM
UACC-62
  EC50: 45 nM
PC3 [6]
  EC50: 155 nM
LNCaP [7]
  GI50: 220 nM
[8]
  Akt/PKB phosphorylation: inhibition
U87MG
  EC50: 17 nM
Solid tumor
  EC50: 1700 nM
RXF-393
  EC50: 25 nM
PTEN null T-ALL
  luminescent signal: significantly lower
[9]; [11]
  Vss: 1.32 L/kg and 1.674 L/kg
  Vz: 5.849 L/kg and 1.768 L/kg
[9]; PO 3 mg/kg, individual rats (Rat 1, 2, 3), 3 mg/kg
  Bioavailability: 81% and 37%
[9]; PO 3 mg/kg, individual rats, 3 mg/kg
  Cmax: 457 ng/mL and 345 ng/mL
[9]; PO 30 mg/kg, individual rats (Rat 4, 5, 6), 30 mg/kg
  Bioavailability: 138% and 128% and 87%
[9]; PO 30 mg/kg, individual rats, 30 mg/kg
  Cmax: 5770 ng/mL and 4320 ng/mL
[9]; plasma, Rat, PO 3 mg/kg (Table 4)
  AUC: 2000 ng·h/mL
[9]; rat, plasma, iv, 1 mg/kg, IV 1 mg/kg (Table 4)
  clearance: 15.2 mL/min/kg
[9]; [12]
  AUC(0-inf): 1050 ng·h/mL
  AUC(0-t): 1040 ng·h/mL
[9]; rat, plasma, iv, 1 mg/kg, IV 1 mg/kg, individual rats, read-out: Vss
  Vd: 2.64 L/kg
[9]; [13]
  AUC(0-inf): 1130 ng·h/mL
  AUC(0-t): 1100 ng·h/mL
[9]; rat, plasma, iv, 1 mg/kg, IV 1 mg/kg, mean of 3 rats, read-out: Vss
  Vd: 1.88 L/kg
[9]; rat, plasma, iv, 1 mg/kg, IV 1 mg/kg, mean of 3 rats, read-out: Vz
  Vd: 2.99 L/kg
[9]; rat, plasma, iv, 1 mg/kg, Rat, IV 1 mg/kg (Table 4), read-out: Vz
  Vd: 2.99 L/kg
[9]; rat, plasma, po, 3 mg/kg, PO 3 mg/kg (Table 4)
  Tmax: 1.3 h
[9]; [14]
  Tmax: 1 h
  half-life: 2.9 h
[9]; rat, plasma, po, 3 mg/kg, PO 3 mg/kg, individual rats, read-out: Cmax
  Cmax: 568 ng/mL
[9]; [15]
  AUC(0-inf): 2010 ng·h/mL
  AUC(0-t): 2000 ng·h/mL
[9]; rat, plasma, po, 3 mg/kg, PO 3 mg/kg, mean of 3 rats, read-out: Bioavailability
  Bioavailability: 59%
[9]; rat, plasma, po, 3 mg/kg, PO 3 mg/kg, mean of 3 rats, read-out: Cmax
  Cmax: 456 ng/mL
[9]; rat, plasma, po, 3 mg/kg, Rat, PO 3 mg/kg (Table 4), read-out: Cmax
  Cmax: 456 ng/mL
[9]; [16]
  AUC(0-inf): 46800 ng·h/mL
  Tmax: 4 h
  half-life: 2.27 h
[9]; rat, plasma, po, 30 mg/kg, PO 30 mg/kg, individual rats, read-out: Cmax
  Cmax: 5800 ng/mL
[9]; [17]
  AUC(0-inf): 40000 ng·h/mL
  AUC(0-t): 40000 ng·h/mL
[9]; rat, plasma, po, 30 mg/kg, PO 30 mg/kg, mean of 3 rats, read-out: Bioavailability
  Bioavailability: 118%
[9]; rat, plasma, po, 30 mg/kg, PO 30 mg/kg, mean of 3 rats, read-out: Cmax
  Cmax: 5300 ng/mL
[9]; rats, single dose, over a period of 24 hours (data not shown)
  time at which plasma levels peaked after administration: 2 to 4 h
T47D [10]
  EC50: 502 nM
